One may read the solubility as how much of the substance goes into solution per volume. As usually defined, the CC50 is the concentration at which the toxic effect on the cells reaches its halfway point. A word on the IC50: it is the concentration needed to halve the response being measured. In general, EC50 refers to the concentration needed to bring the measured effect to its halfway point.

≈ marks a conversion by molar mass, not a printed value. Where two headings read alike, the source gives them in different places.

In one series the test system is young male Wistar rats. The following applies: cited from earlier work.
For series [1] the following is noted: in vivo; cited from earlier work.
The next series deals with STING. Briefly: STING dimerization by Western blot in THP-1 AML cells. Type of series: cell-based. Here is the method: Cells were treated with RB and the induction of STING was evaluated by Western blot analysis using cyclic guanosine monophosphate-adenosine monophosphate (cGAMP) as a positive control.
(§1) These studies were carried out using RB at 100 μM, or about 0.01% RB. Cytokine assays were carried out prior to the addition of RB to the cell culture medium (0), and at 8, 24 and 48 hours thereafter.
(§2) Proteins that associate with STING in the presence of RB were purified by immunoprecipitation and analyzed by mass spectrometry (LC-MS/MS). The culture supernatants from RB-treated cells were probed for a panel of 42 immune cytokines using the Bio-Plex® multiplex bead-based assay system (Bio-Rad Laboratories, Inc.).
For orientation: Immunoblotting shows a protein as a band on a membrane.

The conditions of series [2]: cited from earlier work.
The next series relates to Vero cells. The following applies: 48 hours.
For a further series, the system named is THP-1 AML cells. As to the kind of experiment: Cytokine/chemokine Bio-Plex assay of THP-1 AML culture supernatants. In kind it is cell-based. The following applies: RB 100 μM. Here is the method: as §1, §2
Series [3] deals with SARS-CoV-2 isolate USA-WA1/2020. Briefly: microbe, parasite or virus in culture. In kind it is cell-based.
A short description of series [4]: Plasma protein binding, ultracentrifugation method, human plasma. In kind it is in vitro ADME. The text has this: (§3) In normal rats, 75-80% of the RB was recovered from the albumin fraction and the remaining 20-25% in other protein fractions [Tsao et al. 1988, supra; and Meurman, Acta medica Scan, Supp 167, Chapters I, III, V, VII, X and XII (1960)].
A short description of series [5]: Clinical studies of PV-10 delivered intratumorally. Type of series: in vivo, human. Here is the method:
In clinical studies of PV-10 (10% disodium RB in saline for injection), RB has been tolerated at a bolus dose of 1500 mg upon intravasation when delivered intratumorally; this equates to an exposure of approximately 300 mg/L in the bloodstream (300 μM RB).

The subject of series [6] is SARS-CoV-2.
The conditions of series [7]: cited from earlier work. The source holds these as a separate data set.
A short description of series [8]: Classic IV diagnostic use of RB, blood concentration. Type of series: in vivo, human. As to conditions: 100 mg single IV bolus, blood volume approximately 5 L (also approximately 20 μM). As for the experimental part: Based on a molecular weight of 1018 g/mole for disodium RB, the classic IV diagnostic use of RB, conducted by giving 100 mg RB as a single IV bolus to adults with a standard blood volume of approximately 5 L, achieved a concentration of approximately 20 mg/L in the blood, or approximately 20 μM RB. Exposure at such a level would have minimal direct cytotoxic effect on solid tumor or hematologic malignancies, as illustrated by the results of Swift et al. 2019 or Swift et al. 2018, above.

The test system of the next series is leukemia cell lines. The following applies: cited from earlier work.
The nature of series [9]: Plasma protein binding, ultracentrifugation method, rat plasma. Type of series: in vitro ADME.
Source text: as §3

For series [10], the system named is SARS-CoV-2 viral envelope protein (E gene) vRNA. Briefly: qPCR of viral RNA (E gene) after RB treatment. In kind it is cell-based.
For series [11] the following is noted: humans, intravenous; cited from earlier work.
Series [12] relates to SARS-CoV-2. Type of series: cell-based. As to conditions: Calu-3 cells, 48-hour RB contact; read-out: EC50 (viral titer).
For series [13] the following is noted: package insert; cited from earlier work.
Another series has as its system progressive COVID-19. The following applies: cited from earlier work.
Setting [14] is: rats, similar concentrations for comparators.
[15] abbreviates: oral 300 mg/kg/day, young male Wistar rats.

Turning to `O=S(=O)([O-])c1ccc2c(N=Nc3ccc(S(=O)(=O)[O-])c4ccccc34)c(O)c(S(=O)(=O)[O-])cc2c1.[Na+].[Na+].[Na+]` [Amaranth, reference compound], in the series on young male Wistar rats (rat, in vivo), the “H^3-UTP incorporation into RNA or RNA content in liver nuclei (RNA synthesis in vivo)” value is reported as “stimulate RNA synthesis”.
As for `N#C[C@@]1(c2ccc3c(N)ncnn23)O[C@H](CO)[C@@H](O)[C@H]1O` [GS-441524], the half-life entry in series [1] is given as “about 25 hours”.
Regarding `Cc1cc(C)c(N=Nc2c(O)c(S(=O)(=O)[O-])cc3cc(S(=O)(=O)[O-])ccc23)cc1C.[Na+].[Na+]` [Ponceau 3R, reference compound], the “H^3-UTP incorporation into RNA or RNA content in liver nuclei (RNA synthesis in vivo)” value in the series with young male Wistar rats (setting [14]) was “stimulate RNA synthesis”.
Regarding `O=C1OC2(c3cc(I)c(O)c(I)c3Oc3c2cc(I)c(O)c3I)c2c(Cl)c(Cl)c(Cl)c(Cl)c21` [RB, 4,5,6,7-tetrachloro-2′,4′,5′,7′-tetraiodofluorescein], the “STING dimerization (Western blot)” value in the series on STING (RB at 100 μM) was “new about 70-KD STING dimer band”. In addition, in the series on STING (compared to cGAMP controls), the “induction of PDL-1” value is “no induction”. In addition, the values for the solubility in [2] (in 2-methoxyethanol (printed also as 6%)), in series [2] (in ethanol (printed also as 3%)) and in series [2] (in water (printed also as 10%)) were 60 mg/mL (≈ 61.6 mM), 30 mg/mL (≈ 30.8 mM) and at least 100 mg/mL, respectively. Besides, the CC50 with Vero cells worked out at 175 µM. Besides, the “increase in IL-6” value in the series with THP-1 AML cells (24 hours following exposure) is listed as “approximately 10 fold”. Further, the “increase in IL-8” value with THP-1 AML cells (24 hours following exposure) is reported as “approximately 10 fold”. Moreover, in the series on THP-1 AML cells (24 hours following exposure), the “increase in IP-10” value is listed as “approximately 10 fold”. The MCP-1 levels result in the series with THP-1 AML cells is “significant increase”. Besides, the “induction of IFN gamma” value in the series with THP-1 AML cells (peak at 24 hours) is over 2 fold. The “induction of MCP-3” value in the series on THP-1 AML cells (peak at 24 hours) was over 2 fold. Moreover, the IC50 in series [3] (RB alone, 2 hours of contact, Vero C1008, read-out: IC50 for inhibition) is 67 µM; in [3] (RB plus 0.15 μM remdesivir, 2-hour RB contact, Vero C1008, read-out: IC50 for inhibition), 47.4 µM; in the series with leukemia cell lines (primary pediatric leukemia cell lines), 92.8 µM; with leukemia cell lines (refractory (relapsed) pediatric leukemia cell lines), 122 µM. The plasma protein binding in series [4] (1 μM) came to 99.8%; in series [4] (10 μM), 99.9%; in series [9], 99.2%; in [9] (1 μM) it was 99.0%. For the same molecule, the “exposure in the bloodstream” value in series [5] (at 1500 mg bolus (printed also as 300 μM RB)) is “approximately 300 mg/L”. This molecule registered a tolerated bolus dose in [5] (upon intravasation when delivered intratumorally as PV-10) of 1500 mg. The “SI (CC50/EC50)” value in the series on SARS-CoV-2 [6] (Vero cells, 48 hours) stood at 3211. Further, the “inhibition in viral titers” value in the series on SARS-CoV-2 [6] (Vero cells, approximately 1 to 100 μM RB, 48 hours of contact) is recorded as “complete inhibition”. The EC50 is 0.054 µM in the series with SARS-CoV-2 [6] (read-out: EC50 (viral titer)) and 0.015 µM with SARS-CoV-2 [12]. Also, the bound in serum entry in series [7] (equilibrium dialysis, serum from rats lacking serum albumin) is listed as “more than 99.8%”. The “recovered from the albumin fraction” value in [7] (normal rats) is 75-80%. In addition, the “recovered in other protein fractions” value in series [7] (normal rats) is recorded as 20-25%. In addition, the “concentration in the blood” value in series [8] is listed as “approximately 20 mg/L”. Further, the “influence on growth rate” value with young male Wistar rats (setting [15]) was “no influence”. The relative liver weight result in the series on young male Wistar rats (setting [15]) is listed as “significant decrease”. For the same molecule, the “H^3-UTP incorporation into RNA or RNA content in liver nuclei (RNA synthesis in vivo)” value with young male Wistar rats (setting [14]) is reported as “No effect”. Moreover, in series [10], the “cycle threshold (ct) of sub-genomic viral RNA” value is recorded as “higher ct values”. Besides, in series [10] (RB added after the virus has been incubated with the cells), the “viral E gene copy numbers / viral production” value is on record as “no effect”. Also, the “viral E gene copy numbers” value in series [10] (virus and RB added at the same time) was “reduction compared to control”; in [10] (virus pre-treated with RB 0.6 μM, 1 hour, p<0.05), “lower copy numbers”. For the same molecule, the circulatory half-life result in [11] is “about 30 minutes”.
In the case of `CCC(CC)COC(=O)[C@H](C)N[P@](=O)(OC[C@H]1O[C@@](C#N)(c2ccc3c(N)ncnn23)[C@H](O)[C@@H]1O)Oc1ccccc1` [remdesivir, reference compound], in series [1], the half-life entry is recorded as “about 0.89 hours”. Moreover, in series [3] (Severe acute respiratory syndrome coronavirus 2, Vero C1008, read-out: EC50 (percent plaque forming unit)), the EC50 is 0.86 µM. Moreover, the IC50 in series [3] (Severe acute respiratory syndrome coronavirus 2, Vero C1008, read-out: IC50 (percent inhibition)) amounted to 0.86 µM.
Consider “Yervoy®: immune checkpoint inhibitor monoclonal antibody”, for which the “terminal t1/2” value in series [13] is 15.4 days.
In the case of “tocilizumab: immunosuppressive humanized monoclonal antibody against the interleukin-6 receptor”, the death rate ratio with progressive COVID-19 (28-day mortality, 95% CI 0.77-0.96, p=0.007) is recorded as 0.86. The “proportional reduction in 28-day mortality” value in the series with progressive COVID-19 (about 4000 hospitalized patients, progressive COVID-19) was 13%.
